The target of this test is T1, HePTP (Homo sapiens, UniProt P35236).
T1 sequence (P35236 1-360): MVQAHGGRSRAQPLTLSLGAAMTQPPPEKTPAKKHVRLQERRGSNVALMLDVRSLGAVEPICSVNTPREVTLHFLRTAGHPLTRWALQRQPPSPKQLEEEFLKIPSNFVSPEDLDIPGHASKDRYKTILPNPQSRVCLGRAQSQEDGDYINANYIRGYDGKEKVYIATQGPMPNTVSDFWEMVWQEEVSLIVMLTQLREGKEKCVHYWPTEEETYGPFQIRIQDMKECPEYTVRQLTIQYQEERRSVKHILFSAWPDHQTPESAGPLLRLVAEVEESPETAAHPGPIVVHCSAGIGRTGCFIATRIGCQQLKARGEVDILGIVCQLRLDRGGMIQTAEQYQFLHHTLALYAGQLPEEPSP
Kind of test: Dose-response OMFP phosphatase assay, HePTP. The format is biochemical. To be noted: OMFP substrate.

Structures are written as SMILES.

For the compound `O=C(O)c1ccccc1` [benzoic acid, reference compound], the “activity against HePTP (in words)” value is “did not inhibit”.

The values above are taken from paper PMC3288537 (ACS Chemical Biology, 2011).
